From the CheMixHub viscosity set
± gives the uncertainty stated by the source.

Assay: xn = mol fraction of the nth substance listed

C=CC(=O)OCC + CC#N
viscosity [mPa·s], 100 kPa
Conditions	293.15 K	298.15 K	303.15 K	308.15 K	313.15 K	318.15 K
x2 = 0.0611	0.5524 ± 0.011	0.5177 ± 0.011	0.4854 ± 0.01	0.4506 ± 0.01	0.4107 ± 0.01	0.3704 ± 0.01
x2 = 0.1197	0.5374 ± 0.011	0.5035 ± 0.011	0.472 ± 0.01	0.4383 ± 0.01	0.3998 ± 0.01	0.3611 ± 0.01
x2 = 0.1852	0.5211 ± 0.011	0.4883 ± 0.01	0.4578 ± 0.01	0.4254 ± 0.01	0.3886 ± 0.01	0.3517 ± 0.01
x2 = 0.2385	0.5081 ± 0.011	0.4762 ± 0.01	0.4467 ± 0.01	0.4154 ± 0.01	0.3801 ± 0.01	0.3447 ± 0.01
x2 = 0.2966	0.4944 ± 0.01	0.4633 ± 0.01	0.4348 ± 0.01	0.4048 ± 0.01	0.3711 ± 0.01	0.3374 ± 0.01
x2 = 0.3675	0.4781 ± 0.01	0.4483 ± 0.01	0.421 ± 0.01	0.3926 ± 0.01	0.3609 ± 0.01	0.3293 ± 0.01
x2 = 0.436	0.4629 ± 0.01	0.4343 ± 0.01	0.4082 ± 0.01	0.3812 ± 0.01	0.3515 ± 0.01	0.3219 ± 0.01
x2 = 0.4982	0.4496 ± 0.01	0.4221 ± 0.01	0.3971 ± 0.01	0.3714 ± 0.01	0.3435 ± 0.01	0.3157 ± 0.01
x2 = 0.5745	0.4339 ± 0.01	0.4078 ± 0.01	0.3841 ± 0.01	0.3601 ± 0.01	0.3343 ± 0.01	0.3087 ± 0.01
x2 = 0.6519	0.4188 ± 0.01	0.394 ± 0.01	0.3717 ± 0.01	0.3493 ± 0.01	0.3257 ± 0.01	0.3024 ± 0.01
x2 = 0.725	0.4054 ± 0.01	0.3819 ± 0.01	0.3608 ± 0.01	0.34 ± 0.01	0.3185 ± 0.01	0.2973 ± 0.01
x2 = 0.8185	0.3896 ± 0.01	0.3678 ± 0.01	0.3484 ± 0.01	0.3296 ± 0.01	0.3108 ± 0.01	0.2924 ± 0.01
x2 = 0.9145	0.3751 ± 0.01	0.3552 ± 0.01	0.3378 ± 0.01	0.3213 ± 0.01	0.3054 ± 0.01	0.2901 ± 0.01

Clc1ccccc1 + OCCOCCOCCO
viscosity [mPa·s], 101 kPa
Conditions	298.15 K	308.15 K
x2 = 0.0473	0.941 ± 0.05	0.808 ± 0.045
x2 = 0.149	1.491 ± 0.072	1.172 ± 0.058
x2 = 0.2493	2.307 ± 0.11	1.682 ± 0.08
x2 = 0.3495	3.504 ± 0.16	2.4 ± 0.11
x2 = 0.439	5.014 ± 0.22	3.283 ± 0.15
x2 = 0.4734	5.733 ± 0.24	3.699 ± 0.17
x2 = 0.5509	7.695 ± 0.3	4.829 ± 0.21
x2 = 0.6512	11.09 ± 0.41	6.787 ± 0.28
x2 = 0.7493	15.58 ± 0.55	9.422 ± 0.36
x2 = 0.8483	21.58 ± 0.73	13.05 ± 0.47
x2 = 0.9428	28.99 ± 0.96	17.74 ± 0.61

N#CCCCCC#N + CCOC(C)=O
303.15 K, 101.33 kPa
Conditions	viscosity [mPa·s]
x1 = 0.1075	0.5353 ± 0.0041
x1 = 0.3039	0.8893 ± 0.0057
x1 = 0.3934	1.116 ± 0.007
x1 = 0.4973	1.451 ± 0.0088
x1 = 0.5975	1.861 ± 0.011
x1 = 0.6944	2.366 ± 0.014
x1 = 0.85	3.442 ± 0.019

Clc1ccccc1 + COc1ccccc1
Conditions	viscosity [mPa·s]
293.15 K, 101.33 kPa, x2 = 0.0976	0.8705 ± 0.046
293.15 K, 101.33 kPa, x2 = 0.1922	0.8967 ± 0.047
293.15 K, 101.33 kPa, x2 = 0.2893	0.9253 ± 0.049
293.15 K, 101.33 kPa, x2 = 0.3873	0.9512 ± 0.05
293.15 K, 101.33 kPa, x2 = 0.493	0.9898 ± 0.052
293.15 K, 101.33 kPa, x2 = 0.5987	0.967 ± 0.051
293.15 K, 101.33 kPa, x2 = 0.7059	1.007 ± 0.053
293.15 K, 101.33 kPa, x2 = 0.7916	1.072 ± 0.056
293.15 K, 101.33 kPa, x2 = 0.905	1.107 ± 0.058
298.15 K, 101 kPa, x2 = 0.0994	0.7921 ± 0.021
298.15 K, 101 kPa, x2 = 0.2	0.8143 ± 0.021
298.15 K, 101 kPa, x2 = 0.2957	0.8336 ± 0.022
298.15 K, 101 kPa, x2 = 0.3982	0.8576 ± 0.022
298.15 K, 101 kPa, x2 = 0.5028	0.88 ± 0.023
298.15 K, 101 kPa, x2 = 0.6002	0.9024 ± 0.023
298.15 K, 101 kPa, x2 = 0.7006	0.9275 ± 0.024
298.15 K, 101 kPa, x2 = 0.7995	0.9474 ± 0.025
298.15 K, 101 kPa, x2 = 0.8997	0.9779 ± 0.025
298.15 K, 101.33 kPa, x2 = 0.0976	0.8217 ± 0.043
298.15 K, 101.33 kPa, x2 = 0.1922	0.8474 ± 0.044
298.15 K, 101.33 kPa, x2 = 0.2893	0.8642 ± 0.045
298.15 K, 101.33 kPa, x2 = 0.3873	0.8824 ± 0.046
298.15 K, 101.33 kPa, x2 = 0.493	0.9356 ± 0.049
298.15 K, 101.33 kPa, x2 = 0.5987	0.9051 ± 0.048
298.15 K, 101.33 kPa, x2 = 0.7059	0.9242 ± 0.049
298.15 K, 101.33 kPa, x2 = 0.7916	0.9965 ± 0.052
298.15 K, 101.33 kPa, x2 = 0.905	1.037 ± 0.054
303.15 K, 101 kPa, x2 = 0.0864	0.7392 ± 0.0072
303.15 K, 101 kPa, x2 = 0.0994	0.7495 ± 0.019
303.15 K, 101 kPa, x2 = 0.1933	0.7667 ± 0.0074
303.15 K, 101 kPa, x2 = 0.2	0.7657 ± 0.02
303.15 K, 101 kPa, x2 = 0.2875	0.79 ± 0.0076
303.15 K, 101 kPa, x2 = 0.2957	0.785 ± 0.02
303.15 K, 101 kPa, x2 = 0.3805	0.8112 ± 0.0078
303.15 K, 101 kPa, x2 = 0.3982	0.8026 ± 0.021
303.15 K, 101 kPa, x2 = 0.4904	0.8348 ± 0.008
303.15 K, 101 kPa, x2 = 0.5028	0.8232 ± 0.021
303.15 K, 101 kPa, x2 = 0.5826	0.8538 ± 0.0082
303.15 K, 101 kPa, x2 = 0.6002	0.8438 ± 0.022
303.15 K, 101 kPa, x2 = 0.6914	0.8755 ± 0.0084
303.15 K, 101 kPa, x2 = 0.7006	0.8635 ± 0.022
303.15 K, 101 kPa, x2 = 0.779	0.8922 ± 0.0085
303.15 K, 101 kPa, x2 = 0.7995	0.8808 ± 0.023
303.15 K, 101 kPa, x2 = 0.8905	0.9132 ± 0.0087
303.15 K, 101 kPa, x2 = 0.8997	0.9091 ± 0.024
308.15 K, 101 kPa, x2 = 0.0994	0.7047 ± 0.018
308.15 K, 101 kPa, x2 = 0.2	0.7212 ± 0.019
308.15 K, 101 kPa, x2 = 0.2957	0.7354 ± 0.019
308.15 K, 101 kPa, x2 = 0.3982	0.7535 ± 0.019
308.15 K, 101 kPa, x2 = 0.5028	0.7693 ± 0.02
308.15 K, 101 kPa, x2 = 0.6002	0.7866 ± 0.02
308.15 K, 101 kPa, x2 = 0.7006	0.8038 ± 0.021
308.15 K, 101 kPa, x2 = 0.7995	0.8201 ± 0.021
308.15 K, 101 kPa, x2 = 0.8997	0.8444 ± 0.022
313.15 K, 101 kPa, x2 = 0.0994	0.6642 ± 0.017
313.15 K, 101 kPa, x2 = 0.2	0.6768 ± 0.018
313.15 K, 101 kPa, x2 = 0.2957	0.6921 ± 0.018
313.15 K, 101 kPa, x2 = 0.3982	0.7064 ± 0.018
313.15 K, 101 kPa, x2 = 0.5028	0.7227 ± 0.019
313.15 K, 101 kPa, x2 = 0.6002	0.7366 ± 0.019
313.15 K, 101 kPa, x2 = 0.7006	0.7511 ± 0.019
313.15 K, 101 kPa, x2 = 0.7995	0.7649 ± 0.02
313.15 K, 101 kPa, x2 = 0.8997	0.7855 ± 0.02

CCc1ccccc1 + CCO
viscosity [mPa·s], 101.33 kPa
Conditions	x2 = 0.4	x2 = 0.6	x2 = 0.8	x2 = 0.9
303 K	0.625 ± 0.0058	0.732 ± 0.0067	0.842 ± 0.0076	0.9 ± 0.0081
313 K	0.547 ± 0.0052	0.627 ± 0.0058	0.706 ± 0.0065	0.752 ± 0.0069
323 K	0.482 ± 0.0046	0.54 ± 0.0051	0.602 ± 0.0056	0.632 ± 0.0057

C=CC(=O)OCC + CCCCCCCCO
viscosity [mPa·s], 101.3 kPa
Conditions	x1 = 0.0771	x1 = 0.2017	x1 = 0.2664	x1 = 0.3869	x1 = 0.4933	x1 = 0.6865	x1 = 0.7722	x1 = 0.8504	x1 = 0.9275	x1 = 0.9634
298.15 K	5.444 ± 0.23	3.576 ± 0.16	2.914 ± 0.13	2.043 ± 0.094	1.543 ± 0.073	0.96 ± 0.048	0.785 ± 0.04	0.681 ± 0.036	0.582 ± 0.031	0.546 ± 0.03
308.15 K	4.096 ± 0.18	2.812 ± 0.13	2.301 ± 0.11	1.663 ± 0.078	1.268 ± 0.061	0.825 ± 0.042	0.678 ± 0.036	0.586 ± 0.032	0.507 ± 0.028	0.478 ± 0.027

COCCOCCOCCOCCOC + ClC(Cl)Cl
298.15 K, 101 kPa
Conditions	viscosity [mPa·s]
x1 = 0.0305	0.671 ± 0.006
x1 = 0.06	0.81 ± 0.008
x1 = 0.0813	0.921 ± 0.009
x1 = 0.118	1.124 ± 0.011
x1 = 0.1876	1.492 ± 0.016
x1 = 0.2354	1.766 ± 0.02
x1 = 0.2657	1.91 ± 0.023
x1 = 0.2957	2.04 ± 0.025
x1 = 0.35	2.276 ± 0.03
x1 = 0.4029	2.413 ± 0.034
x1 = 0.4429	2.521 ± 0.038
x1 = 0.5093	2.676 ± 0.043
x1 = 0.5445	2.745 ± 0.046
x1 = 0.6146	2.883 ± 0.052
x1 = 0.6452	2.925 ± 0.055
x1 = 0.7142	3.035 ± 0.061
x1 = 0.7593	3.083 ± 0.065
x1 = 0.8142	3.141 ± 0.069
x1 = 0.88	3.227 ± 0.075
x1 = 0.9225	3.252 ± 0.078

CCCC(C)C + CCCCCCCCCCCC
298 K, 101.33 kPa
Conditions	viscosity [mPa·s]
x1 = 0.1004	1.205 ± 0.016
x1 = 0.2007	1.075 ± 0.014
x1 = 0.3018	0.939 ± 0.013
x1 = 0.4027	0.8181 ± 0.011
x1 = 0.5008	0.7124 ± 0.01
x1 = 0.6002	0.6097 ± 0.0088
x1 = 0.6996	0.5148 ± 0.0077
x1 = 0.8002	0.4229 ± 0.0066
x1 = 0.9003	0.3443 ± 0.0056

CCCC(C)C + COC(C)(C)C
298.15 K, 101.33 kPa
Conditions	viscosity [mPa·s]
x2 = 0.0969	0.2794 ± 0.003
x2 = 0.2016	0.2825 ± 0.003
x2 = 0.3021	0.2858 ± 0.0031
x2 = 0.4006	0.2902 ± 0.0031
x2 = 0.5007	0.2956 ± 0.0032
x2 = 0.5985	0.3014 ± 0.0033
x2 = 0.6965	0.3079 ± 0.0034
x2 = 0.7978	0.3154 ± 0.0035
x2 = 0.8845	0.3228 ± 0.0036
